Legend:
[1] = target: T1, Amine oxidase [flavin-containing] B (Rattus norvegicus, UniProt P19643); test: In vitro inhibitory activity against rat brain Monoamine oxidase B
T1 sequence (P19643 whole entry): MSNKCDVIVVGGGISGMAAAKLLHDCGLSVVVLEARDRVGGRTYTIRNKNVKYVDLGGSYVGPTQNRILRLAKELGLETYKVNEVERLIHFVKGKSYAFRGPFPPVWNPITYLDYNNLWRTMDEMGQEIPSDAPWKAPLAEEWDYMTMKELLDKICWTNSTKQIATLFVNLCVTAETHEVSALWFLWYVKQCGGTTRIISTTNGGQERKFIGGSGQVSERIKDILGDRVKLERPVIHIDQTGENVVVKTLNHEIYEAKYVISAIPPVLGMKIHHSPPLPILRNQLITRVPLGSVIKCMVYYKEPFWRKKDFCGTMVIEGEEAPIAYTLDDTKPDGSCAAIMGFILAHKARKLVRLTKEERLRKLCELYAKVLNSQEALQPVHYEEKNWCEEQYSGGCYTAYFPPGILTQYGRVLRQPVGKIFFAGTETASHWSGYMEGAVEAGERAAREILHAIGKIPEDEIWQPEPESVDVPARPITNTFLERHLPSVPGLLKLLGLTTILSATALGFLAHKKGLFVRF

[2] = target: T2, Amine oxidase [flavin-containing] A (Rattus norvegicus, UniProt P21396); test: In vitro inhibitory activity against rat brain Monoamine oxidase A
T2 sequence (P21396 whole entry): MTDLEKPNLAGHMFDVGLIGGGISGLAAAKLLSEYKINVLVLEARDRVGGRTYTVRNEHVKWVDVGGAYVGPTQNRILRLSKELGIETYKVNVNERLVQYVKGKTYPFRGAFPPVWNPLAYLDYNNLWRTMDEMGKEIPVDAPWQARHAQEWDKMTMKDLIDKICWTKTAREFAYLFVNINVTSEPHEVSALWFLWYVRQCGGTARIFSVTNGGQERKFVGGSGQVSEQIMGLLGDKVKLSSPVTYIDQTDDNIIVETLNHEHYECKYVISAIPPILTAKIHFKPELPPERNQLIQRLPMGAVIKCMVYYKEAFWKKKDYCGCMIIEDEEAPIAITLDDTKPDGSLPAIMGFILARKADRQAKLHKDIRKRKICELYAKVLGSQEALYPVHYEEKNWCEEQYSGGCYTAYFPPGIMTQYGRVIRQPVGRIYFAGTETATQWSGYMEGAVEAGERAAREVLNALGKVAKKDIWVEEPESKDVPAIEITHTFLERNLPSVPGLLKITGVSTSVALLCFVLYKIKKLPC

[3] = target: T1, Amine oxidase [flavin-containing] B; test: Compound was evaluated for the Inhibition of Monoamine oxidase B
[4] = Selectivity for the B form was estimated by the IC50(MAO A)/IC50(MAO B) ratio.
[5] = target: T1, Amine oxidase [flavin-containing] B; test: Ex vivo inhibitory activity against rat brain monoamine oxidase (MAO) type B at a dose of 5 mg/kg administered orally at 4 hr; type: functional, organism-based; parameters: dose 5 mg/kg, route oral; conditions: po
[6] = target: T1, Amine oxidase [flavin-containing] B; test: Inhibitory activity against monoamine oxidase (MAO) type B by reversibility test before dialysis at a concentration of 0.001 uM; conditions: read-out: Control
[7] = target: T1, Amine oxidase [flavin-containing] B; test: Ex vivo inhibitory activity against rat brain monoamine oxidase (MAO) type B at a dose of 5 mg/kg administered orally at 24 hr; type: functional, organism-based; parameters: dose 5 mg/kg, route oral; conditions: po
[8] = target: T2, Amine oxidase [flavin-containing] A; test: (§1) Ex vivo inhibitory activity against rat brain monoamine oxidase (MAO) type A at a dose of 5 mg/kg administered orally at 1 hr; type: functional, organism-based; parameters: dose 5 mg/kg, route oral; conditions: po
[9] = target: T1, Amine oxidase [flavin-containing] B; test: (§2) Ex vivo inhibitory activity against rat brain monoamine oxidase (MAO) type B at a dose of 5 mg/kg administered orally at 1 hr; type: functional, organism-based; parameters: dose 5 mg/kg, route oral; conditions: po
[10] = target: T1, Amine oxidase [flavin-containing] B; test: Inhibitory activity against monoamine oxidase (MAO) type B by reversibility test before dialysis at a concentration of 0.1 uM; conditions: read-out: Control
[11] = target: T1, Amine oxidase [flavin-containing] B; test: Inhibitory activity against monoamine oxidase (MAO) type B by reversibility test after dialysis at a concentration of 0.1 uM; conditions: read-out: Control
[12] = target: T2, Amine oxidase [flavin-containing] A; test: Ex vivo inhibitory activity against rat brain monoamine oxidase (MAO) type A at a dose of 5 mg/kg administered orally at 4 hr; type: functional, organism-based; parameters: dose 5 mg/kg, route oral; conditions: po
[13] = target: T1, Amine oxidase [flavin-containing] B; test: Ex vivo inhibitory activity against rat brain monoamine oxidase (MAO) type B at a dose of 5 mg/kg administered orally at 0.5 hr; type: functional, organism-based; parameters: dose 5 mg/kg, route oral; conditions: po
[14] = target: T1, Amine oxidase [flavin-containing] B; test: Inhibitory activity against monoamine oxidase (MAO) type B by reversibility test after dialysis at a concentration of 0.001 uM; conditions: read-out: Control
[15] = target: T2, Amine oxidase [flavin-containing] A; test: Ex vivo inhibitory activity against rat brain monoamine oxidase (MAO) type A at a dose of 5 mg/kg administered orally at 24 hr; type: functional, organism-based; parameters: dose 5 mg/kg, route oral; conditions: po
[16] = target: T2, Amine oxidase [flavin-containing] A; test: Ex vivo inhibitory activity against rat brain monoamine oxidase (MAO) type A at a dose of 5 mg/kg administered orally at 0.5 hr; type: functional, organism-based; parameters: dose 5 mg/kg, route oral; conditions: po
[17] = target: T1, Amine oxidase [flavin-containing] B; test: (§3) Compound was evaluated for inhibitory activity against monoamine oxidase (MAO) type B by reversibility test after dialysis at a concentration of 0.1 uM; type: functional; conditions: read-out: Control
[18] = target: T1, Amine oxidase [flavin-containing] B; test: (§4) Compound was evaluated for inhibitory activity against monoamine oxidase (MAO) type B by reversibility test before dialysis at a concentration of 0.1 uM; type: functional; conditions: read-out: Control
[19] = target: T1, Amine oxidase [flavin-containing] B; test: as §4; conditions: read-out: Control
[20] = target: T1, Amine oxidase [flavin-containing] B; test: as §3; conditions: read-out: Control
[21] = target: T1, Amine oxidase [flavin-containing] B; test: Compound was evaluated for inhibitory activity against monoamine oxidase (MAO) type B by reversibility test before dialysis at a concentration of 0.001 uM; type: functional; conditions: read-out: Control
[22] = target: T1, Amine oxidase [flavin-containing] B; test: Compound was evaluated for inhibitory activity against monoamine oxidase (MAO) type B by reversibility test after dialysis at a concentration of 0.001 uM; conditions: read-out: Control
[23] = target: T2, Amine oxidase [flavin-containing] A; test: as §1; type: organism-based; parameters: dose 5 mg/kg, route oral; conditions: po
[24] = target: T2, Amine oxidase [flavin-containing] A; test: Ex vivo inhibitory activity against rat brain monoamine oxidase (MAO) type A at a dose of 5 mg/kg administered orally at 8 hr; type: functional, organism-based; parameters: dose 5 mg/kg, route oral; conditions: po
[25] = target: T1, Amine oxidase [flavin-containing] B; test: as §2; conditions: po

| Structure (SMILES) | IC50 [1] | IC50 [2] | further results |
| --- | --- | --- | --- |
| OCCn1nnc(-c2ccc(Cl)cc2)n1 | 38 µM | 66 µM | – |
| OCCCn1nnc(-c2ccc(-c3ccccc3)cc2)n1 | 1.36 µM | 4.6 µM | – |
| OCCn1nnc(-c2ccc(-c3ccccc3)cc2)n1 | 0.96 µM | 11 µM | – |
| COc1ccc(-c2nnn(CCO)n2)cc1 | > 100 µM | 46 µM | – |
| Cc1ccccc1COc1ccc(-c2nnn(CCC#N)n2)cc1 | – | > 100 µM | – |
| N#CCCn1nnc(-c2ccc(Cl)cc2)n1 | 3.6 µM | 6.5 µM | – |
| N#CCCn1nnc(-c2ccc(OCc3ccc(Cl)cc3)cc2)n1 | 0.08 µM | > 100 µM | – |
| N#CCCn1nc(-c2ccc(OCc3ccccc3)cc2)oc1=O | – | – | IC50 [3]: 0.0046 µM |
| OCCn1nnc(-c2ccc(OCc3ccccc3I)cc2)n1 | 0.35 µM | > 100 µM | – |
| N#CCCn1nnc(-c2ccc(OCc3ccccc3)cc2)n1 | 0.002 µM | – | Selectivity [4]: 37000; inhibition at 5 mg/kg [5]: 69%; remaining activity at 0.001 µM [6]: 65%; inhibition at 5 mg/kg [7]: 24%; inhibition at 5 mg/kg [8]: 12%; inhibition at 5 mg/kg [9]: 74%; remaining activity at 0.1 µM [10]: 12%; remaining activity at 0.1 µM [11]: 54%; inhibition at 5 mg/kg [12]: 0%; inhibition at 5 mg/kg [13]: 76%; remaining activity at 0.001 µM [14]: 85%; inhibition at 5 mg/kg [15]: 2%; inhibition at 5 mg/kg [16]: 6% |
| OCCn1nnc(-c2ccccc2)n1 | 89 µM | > 100 µM | – |
| OCCn1nnc(-c2ccc(OCc3ccc(F)cc3)cc2)n1 | – | > 100 µM | – |
| Cc1ccc(COc2ccc(-c3nnn(CCO)n3)cc2)cc1 | – | > 100 µM | – |
| OCCn1nnc(-c2ccc(OCc3cccc(Cl)c3)cc2)n1 | 0.2 µM | 58 µM | Selectivity [4]: 290; inhibition at 5 mg/kg [5]: 55%; inhibition at 5 mg/kg [8]: 15%; inhibition at 5 mg/kg [9]: 71%; inhibition at 5 mg/kg [12]: 14%; inhibition at 5 mg/kg [13]: 69%; remaining activity at 0.1 µM [17]: 109%; inhibition at 5 mg/kg [16]: 15%; remaining activity at 0.1 µM [18]: 25% |
| N#CCCn1nnc(-c2ccc(OCc3cccc(Cl)c3)cc2)n1 | 0.1 µM | > 100 µM | Selectivity [4]: > 1000; inhibition at 5 mg/kg [5]: 63%; inhibition at 5 mg/kg [7]: 9%; remaining activity at 0.1 µM [19]: 15%; inhibition at 5 mg/kg [8]: 18%; inhibition at 5 mg/kg [9]: 81%; remaining activity at 0.1 µM [20]: 87%; remaining activity at 0.001 µM [21]: 69%; remaining activity at 0.001 µM [22]: 95%; inhibition at 5 mg/kg [12]: 8%; inhibition at 5 mg/kg [13]: 72%; inhibition at 5 mg/kg [15]: 1%; inhibition at 5 mg/kg [16]: 13% |
| OCCn1nnc(-c2ccc(OCc3ccc(Cl)cc3)cc2)n1 | 0.32 µM | – | – |
| N#CCCn1nc(-c2ccc(OCc3ccccc3)cc2)oc1=S | – | – | IC50 [3]: 0.0046 µM |
| COc1cccc(COc2ccc(-c3nnn(CCO)n3)cc2)c1 | – | 80 µM | – |
| OCCCCn1nnc(-c2ccc(-c3ccccc3)cc2)n1 | 9.4 µM | 13 µM | – |
| N#CCCn1nnc(-c2ccc(-c3ccccc3)cc2)n1 | 0.84 µM | – | – |
| COc1ccc(COc2ccc(-c3nnn(CCO)n3)cc2)cc1 | – | > 100 µM | – |

| Structure (SMILES) | IC50 [1] | IC50 [2] | further results |
| --- | --- | --- | --- |
| N#CCCCCn1nnc(-c2ccc(-c3ccccc3)cc2)n1 | 6 µM | 26 µM | – |
| COc1ccc(-c2nnn(CCC#N)n2)cc1 | 37 µM | 16.6 µM | – |
| Cc1cccc(COc2ccc(-c3nnn(CCC#N)n3)cc2)c1 | – | > 100 µM | – |
| N#CCCn1nnc(-c2ccc([N+](=O)[O-])cc2)n1 | 13.4 µM | 18 µM | – |
| N#CCCCCCCn1nnc(-c2ccc(-c3ccccc3)cc2)n1 | – | – | Selectivity [4]: 8.5 |
| OCCn1nnc(-c2ccncc2)n1 | > 100 µM | > 100 µM | – |
| Cc1cccc(COc2ccc(-c3nnn(CCO)n3)cc2)c1 | – | > 100 µM | – |
| N#CCCn1nnc(-c2ccccc2)n1 | > 100 µM | 54 µM | – |
| C#CCN(C)[C@H](C)Cc1ccccc1 [SELEGILINE] | – | – | inhibition at 5 mg/kg [23]: 3%; inhibition at 5 mg/kg [7]: 81%; inhibition at 5 mg/kg [24]: 5%; inhibition at 5 mg/kg [25]: 83%; inhibition at 5 mg/kg [15]: 2% |
| N#CCCn1nnc(-c2ccc(OCc3ccccc3Cl)cc2)n1 | 0.03 µM | > 100 µM | – |
| OCCn1nnc(-c2ccc(OCc3ccccc3)cc2)n1 | 0.03 µM | 64 µM | Selectivity [4]: 2100; inhibition at 5 mg/kg [5]: 63%; inhibition at 5 mg/kg [8]: 4%; inhibition at 5 mg/kg [9]: 84%; inhibition at 5 mg/kg [12]: 4%; inhibition at 5 mg/kg [13]: 84%; remaining activity at 0.1 µM [17]: 107%; inhibition at 5 mg/kg [16]: 5%; remaining activity at 0.1 µM [18]: 19% |
| N#CCCn1nnc(-c2ccncc2)n1 | 30 µM | > 100 µM | – |
| N#CCCn1nnc(-c2ccc(OCc3ccccc3I)cc2)n1 | > 270 µM | > 100 µM | – |
| Cc1ccc(COc2ccc(-c3nnn(CCC#N)n3)cc2)cc1 | – | > 100 µM | – |
| O=[N+]([O-])c1ccc(-c2nnn(CCO)n2)cc1 | > 100 µM | > 100 µM | – |
| OCCn1nnc(-c2ccc(OCc3ccccc3Cl)cc2)n1 | 9 µM | – | – |
| COc1cccc(COc2ccc(-c3nnn(CCC#N)n3)cc2)c1 | – | > 100 µM | – |
| N#CCCn1nnc(-c2ccc(OCc3ccc(F)cc3)cc2)n1 | – | > 100 µM | – |
| Cc1ccccc1COc1ccc(-c2nnn(CCO)n2)cc1 | – | > 100 µM | Selectivity [4]: > 350 |
| COc1ccc2c3c([nH]c2c1)C(C)=NCC3 [HARMALINE] | 150 µM | 0.012 µM | Selectivity [4]: 5 |
| COc1ccc(COc2ccc(-c3nnn(CCC#N)n3)cc2)cc1 | – | > 100 µM | – |

From ChEMBL document CHEMBL1128201, “Selective and potent monoamine oxidase type B inhibitors: 2-substituted 5-aryltetrazole derivatives” (J Med Chem, 1995)
